Reference: patent US12570655B2, “Cysteine covalent modifiers of AKT1 and uses thereof” (Terremoto Biosciences, Inc., priority 2023, dated 2026)
Read-outs that look alike come from different tables or passages of the source.

Legend:
Assay type in all cases: cell-based
AKT1 WT = target: T1, AKT1 WT (Homo sapiens, UniProt P31749); assay: Live cell AKT1 WT target engagement by NanoBRET competitive probe displacement; settings: HEK293 cells transfected with kinase-NanoLuciferase fusion, 2 h at 37° C.
T1 construct: expressed in transfected cells; host or cells: HEK293
In short: (§1)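 Live-cell competitive tracer displacement in HEK293 expressing NanoLuciferase-tagged kinase. Compound and ATP-competitive tracer (~EC50) are co-incubated 2 h at 37 °C; BRET (E600/E460) gives IC50.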

[1] = tested on: LAPC4 prostate cancer cells; assay: Antiproliferative effects in LAPC4 cells (CellTiter Glo); settings: LAPC4 cells (AKT1 E17K allele), read-out: LAPC4 proliferation IC50
In short: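 Cells grown in IMDM supplemented with 12% FBS plus 1% P/S were treated for 72 h with DMSO-dissolved compounds. ATP-based luminescence was fitted to a log(inhibitor) versus response Hill model, giving IC50.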

AKT2 = target: T2, AKT2 (Homo sapiens, UniProt P31751); assay: Live cell AKT2 target engagement by NanoBRET competitive probe displacement; settings: HEK293 cells transfected with kinase-NanoLuciferase fusion, 2 h at 37° C.
T2 construct: expressed in transfected cells; host or cells: HEK293
Description: Determining Live Cell AKT1 E17K, AKT1 WT, and AKT2 Target Engagement by NanoBRET Competitive Probe Displacement.
Live cell target engagement assays were performed as described (Vasta, J. D. et al. Cell Chem Biol 2018, 25(11), 206-214). Briefly, HEK293 cells were transfected with plasmids encoding kinase-NanoLuciferase fusion proteins overnight. Cells were then treated with serial dilutions of compound and an ˜EC50 concentration of fluorescently-tagged ATP-competitive tracer (Promega). After incubation for 2 h at 37° C., luciferase substrate and extracellular luciferase inhibitor were added to all wells, and luminescent intensity at 460 nm and 600 nm were measured on a multimode plate-reader. The ratio of E600/E460 was calculated to give the tracer engagement signal (BRET). IC50 values were calculated by fitting BRET values to a log(inhibitor) vs. response Hill equation.

AKT1 E17K = target: T3, AKT1 E17K (Homo sapiens, UniProt P31749, E17K); assay: Live cell AKT1 E17K target engagement by NanoBRET competitive probe displacement; settings: HEK293 cells transfected with kinase-NanoLuciferase fusion, 2 h at 37° C.
T3 construct: expressed in transfected cells; host or cells: HEK293
In short: as §1

T3 sequence (P31749 whole entry E17K, the tested form may be a part): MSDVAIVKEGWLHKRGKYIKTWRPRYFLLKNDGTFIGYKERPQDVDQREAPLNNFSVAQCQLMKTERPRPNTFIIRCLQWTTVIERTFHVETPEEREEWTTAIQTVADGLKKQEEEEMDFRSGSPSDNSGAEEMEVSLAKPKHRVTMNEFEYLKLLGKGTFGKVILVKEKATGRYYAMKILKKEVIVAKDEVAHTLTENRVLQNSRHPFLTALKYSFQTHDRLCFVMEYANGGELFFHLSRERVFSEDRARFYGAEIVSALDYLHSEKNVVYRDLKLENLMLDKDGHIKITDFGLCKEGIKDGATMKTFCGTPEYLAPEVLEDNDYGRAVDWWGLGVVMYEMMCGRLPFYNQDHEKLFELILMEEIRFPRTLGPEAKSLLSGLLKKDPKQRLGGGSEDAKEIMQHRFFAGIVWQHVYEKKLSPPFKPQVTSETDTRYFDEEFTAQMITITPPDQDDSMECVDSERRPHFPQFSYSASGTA
T2 sequence (P31751 whole entry, the tested form may be a part): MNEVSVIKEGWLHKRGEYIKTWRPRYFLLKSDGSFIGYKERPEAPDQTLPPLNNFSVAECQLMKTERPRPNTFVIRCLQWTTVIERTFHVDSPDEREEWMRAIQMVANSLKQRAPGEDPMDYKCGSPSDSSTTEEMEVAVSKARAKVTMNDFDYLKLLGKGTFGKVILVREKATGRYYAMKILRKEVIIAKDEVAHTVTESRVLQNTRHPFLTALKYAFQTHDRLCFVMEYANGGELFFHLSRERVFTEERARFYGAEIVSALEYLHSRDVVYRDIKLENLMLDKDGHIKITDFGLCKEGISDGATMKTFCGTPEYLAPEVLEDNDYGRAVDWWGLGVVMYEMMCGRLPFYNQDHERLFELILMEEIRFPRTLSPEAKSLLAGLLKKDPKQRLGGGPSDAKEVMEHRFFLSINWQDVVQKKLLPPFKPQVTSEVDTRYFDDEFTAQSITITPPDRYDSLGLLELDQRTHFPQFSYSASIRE
T1 sequence (P31749 whole entry, the tested form may be a part): as the sequence (P31749 whole entry E17K, the tested form may be a part) above, with K17E counted along it

## C=CC(=O)N1CCCC(c2cn([C@H]3CCc4cc(-n5c(-c6cccnc6N)nc6ccc(-n7cccn7)nc65)ccc43)nn2)C1 (single isomer, unassigned) [Example 168, 1-((*)-3-(1-((S)-5-(2-(2-aminopyridin-3-yl)-5-(1H-pyrazol-1-yl)-3H-imidazo[4,5-b]pyridin-3-yl)-2,3-dihydro-1H-inden-1-yl)-1H-1,2,3-triazol-4-yl)piperidin-1-yl)prop-2-en-1-one]
AKT1 WT
  IC50: 571 nM
[1]; 72 h
  IC50: 858 nM
AKT2
  IC50: 369 nM
AKT1 E17K
  IC50: 32.6 nM

## CN(CC#N)C(=O)N1CCC(N[C@H]2CCc3cc(-n4c(-c5cccnc5N)nc5ccc(-n6cccn6)nc54)ccc32)CC1 [Example 128, 4-{[(1S)-5-[2-(2-aminopyridin-3-yl)-5-(pyrazol-1-yl)imidazo[4,5-b]pyridin-3-yl]-2,3-dihydro-1H-inden-1-yl]amino-N}-(cyanomethyl)-N-methylpiperidine-1-carboxamide]
AKT1 WT
  IC50: 10.6 nM
[1]; Homo sapiens, LAPC4, 72 h
  IC50: 44.8 nM
AKT2
  IC50: 43 nM
AKT1 E17K
  IC50: 8.62 nM

## CC#CC(=O)NCc1ccccc1C(=O)N[C@H]1CCc2cc(-n3c(-c4cccnc4N)nc4ccc(-n5cccn5)nc43)ccc21 [Example 267, N-[(1S)-5-[2-(2-aminopyridin-3-yl)-5-(pyrazol-1-yl)imidazo[4,5-b]pyridin-3-yl]-2,3-dihydro-1H-inden-1-yl]-2-(but-2-ynamidomethyl)benzamide]
AKT1 WT
  IC50: 86.4 nM
[1]; Homo sapiens, LAPC4, 72 h
  IC50: 335 nM
AKT2
  IC50: 53.6 nM
AKT1 E17K
  IC50: 5.9 nM

## C/C=C/C(=O)N1CCC(N[C@H]2CCc3cc(-n4c(-c5cccnc5N)nc5ccc(-n6cccn6)nc54)ccc32)CC1 [Example 96, (S,E)-1-(4-((5-(2-(2-aminopyridin-3-yl)-5-(1H-pyrazol-1-yl)-3H-imidazo[4,5-b]pyridin-3-yl)-2,3-dihydro-1H-inden-1-yl)amino)piperidin-1-yl)but-2-en-1-one]
AKT1 WT
  IC50: 58 nM
[1]; Homo sapiens, LAPC4, 72 h
  IC50: 3650 nM
AKT2
  IC50: 3910 nM
AKT1 E17K
  IC50: > 1000 nM

## C=CC(=O)N1CCC(N[C@H]2CCc3cc(-n4c(-c5cccnc5N)nc5ccc(-n6cccn6)nc54)ccc32)C1 (single isomer, unassigned) [Example 58, 1-((*)-3-(((S)-5-(2-(2-aminopyridin-3-yl)-5-(1H-pyrazol-1-yl)-3H-imidazo[4,5-b]pyridin-3-yl)-2,3-dihydro-1H-inden-1-yl)amino)pyrrolidin-1-yl)prop-2-en-1-one]
AKT1 WT
  IC50: 50.2 nM
[1]; 72 h
  IC50: 438 nM
AKT2
  IC50: 1030 nM
AKT1 E17K
  IC50: 189 nM

## C=CC(=O)N1CCC(N[C@@H]2c3ccc(-n4c(-c5cccnc5N)nc5ccc(-n6ccc(F)n6)nc54)cc3CC2F)C[C@H]1C (single isomer, unassigned) [Example 274, 1-((2R,4*)-4-(((1R,2*)-5-(2-(2-aminopyridin-3-yl)-5-(3-fluoro-1H-pyrazol-1-yl)-3H-imidazo[4,5-b]pyridin-3-yl)-2-fluoro-2,3-dihydro-1H-inden-1-yl)amino)-2-methylpiperidin-1-yl)prop-2-en-1-one]
AKT1 WT
  IC50: 696 nM
[1]; 72 h
  IC50: 323 nM
AKT2
  IC50: 94.4 nM
AKT1 E17K
  IC50: 18.8 nM

## C=CC(=O)N1CCC(N[C@H]2CCc3cc(-n4c(-c5cccnc5N)nc5ccc(-n6ccc(C7(C#N)CC7)n6)nc54)ccc32)CC1 [Example 322, (S)-1-(1-(3-(1-((1-acryloylpiperidin-4-yl)amino)-2,3-dihydro-1H-inden-5-yl)-2-(2-aminopyridin-3-yl)-3H-imidazo[4,5-b]pyridin-5-yl)-1H-pyrazol-3-yl)cyclopropane-1-carbonitrile]
AKT1 WT
  IC50: 247 nM
[1]; Homo sapiens, LAPC4, 72 h
  IC50: 137 nM
AKT2
  IC50: 41.4 nM
AKT1 E17K
  IC50: 5.51 nM

## C=CC(=O)N1CCC(N[C@H]2CCc3cc(-n4c(-c5cccnc5N)nc5ccc(-c6cnn(C(F)F)c6)nc54)ccc32)CC1 [Example 187, 1-(4-{[(1S)-5-[2-(2-aminopyridin-3-yl)-5-[1-(difluoromethyl)pyrazol-4-yl]imidazo[4,5-b]pyridin-3-yl]-2,3-dihydro-1H-inden-1-yl]amino}piperidin-1-yl)prop-2-en-1-one]
AKT1 WT
  IC50: 46.4 nM
[1]; Homo sapiens, LAPC4, 72 h
  IC50: 64.4 nM
AKT2
  IC50: 28.7 nM
AKT1 E17K
  IC50: 7.3 nM

## C=CC(=O)N1CCC(N[C@@H]2c3ccc(-n4c(-c5cccnc5N)nc5ccc(-n6cccn6)nc54)cc3CC2OC)CC1 (single isomer, unassigned) [Example 162, 1-(4-(((1R,2*)-5-(2-(2-aminopyridin-3-yl)-5-(1H-pyrazol-1-yl)-3H-imidazo[4,5-b]pyridin-3-yl)-2-methoxy-2,3-dihydro-1H-inden-1-yl)amino)piperidin-1-yl)prop-2-en-1-one]
AKT1 WT
  IC50: 102 nM
[1]; Homo sapiens, LAPC4, 72 h
  IC50: 1600 nM
AKT2
  IC50: 5880 nM
AKT1 E17K
  IC50: 645 nM

## C=CC(=O)N1CCC(N[C@H]2CCc3cc(-n4c(-c5cccnc5N)nc5ccc(-n6nccn6)nc54)ccc32)C[C@H]1C (single isomer, unassigned) [Example 262, 1-[(2R,4*)-4-{[(1S)-5-[2-(2-aminopyridin-3-yl)-5-(1,2,3-triazol-2-yl)imidazo[4,5-b]pyridin-3-yl]-2,3-dihydro-1H-inden-1-yl]amino}-2-methylpiperidin-1-yl]prop-2-en-1-one]
AKT1 WT
  IC50: 650 nM
[1]; 72 h
  IC50: 83.7 nM
AKT2
  IC50: 45.9 nM
AKT1 E17K
  IC50: 29.6 nM

## C=CC(=O)N1CCC(NC2CCc3cc(-n4c(-c5cccnc5N)nc5ccc(C6CC6(F)F)nc54)ccc32)CC1 (single isomer, unassigned) [Example 245, 1-(4-(((*)-5-(2-(2-aminopyridin-3-yl)-5-((*)-2,2-difluorocyclopropyl)-3H-imidazo[4,5-b]pyridin-3-yl)-2,3-dihydro-1H-inden-1-yl)amino)piperidin-1-yl)prop-2-en-1-one]
AKT1 WT
  IC50: 715 nM
[1]; 72 h
  IC50: 526 nM
AKT2
  IC50: 354 nM
AKT1 E17K
  IC50: 37.6 nM

## C=CC(=O)N1CCC(N[C@@H]2c3ccc(-n4c(-c5cccnc5N)nc5ccc(-n6ccc(F)n6)nc54)cc3CC2F)C[C@H]1C (single isomer, unassigned) [Example 277, 1-((2R,4*)-4-(((1R,2*)-5-(2-(2-aminopyridin-3-yl)-5-(3-fluoro-1H-pyrazol-1-yl)-3H-imidazo[4,5-b]pyridin-3-yl)-2-fluoro-2,3-dihydro-1H-inden-1-yl)amino)-2-methylpiperidin-1-yl)prop-2-en-1-one]
AKT1 WT
  IC50: 821 nM
[1]; 72 h
  IC50: 138 nM
AKT2
  IC50: 54.6 nM
AKT1 E17K
  IC50: 23.3 nM

## C=CC(=O)N1CCC(N[C@@H]2c3ccc(-n4c(-c5cccnc5N)nc5ccc(-n6cccn6)nc54)cc3C[C@@H]2F)CC1 [Example 76, 1-(4-(((1R,2S)-5-(2-(2-aminopyridin-3-yl)-5-(1H-pyrazol-1-yl)-3H-imidazo[4,5-b]pyridin-3-yl)-2-fluoro-2,3-dihydro-1H-inden-1-yl)amino)piperidin-1-yl)prop-2-en-1-one]
AKT1 WT
  IC50: 23.3 nM
[1]; Homo sapiens, LAPC4, 72 h
  IC50: 369 nM
AKT2
  IC50: 232 nM
AKT1 E17K
  IC50: 60.1 nM

## C=CC(=O)N1CCC(CC2CCc3cc(-n4c(-c5cccnc5N)nc5ccc(-n6cccn6)nc54)ccc32)CC1 (single isomer, unassigned) [Example 343, 1-(4-(((*)-5-(2-(2-aminopyridin-3-yl)-5-(1H-pyrazol-1-yl)-3H-imidazo[4,5-b]pyridin-3-yl)-2,3-dihydro-1H-inden-1-yl)methyl)piperidin-1-yl)prop-2-en-1-one]
AKT1 WT
  IC50: 86.1 nM
AKT2
  IC50: 15.9 nM
AKT1 E17K
  IC50: 6.65 nM

## C=CC(=O)N1CCC(N[C@H]2CCc3cc(-n4c(-c5cccnc5N)nc5ccc(-n6cccn6)nc54)ccc32)CC1CC#N (single isomer, unassigned) [Example 327, 2-((2*,4*)-1-acryloyl-4-(((S)-5-(2-(2-aminopyridin-3-yl)-5-(1H-pyrazol-1-yl)-3H-imidazo[4,5-b]pyridin-3-yl)-2,3-dihydro-1H-inden-1-yl)amino)piperidin-2-yl)acetonitrile]
AKT1 WT
  IC50: 204 nM
AKT2
  IC50: 99.4 nM
AKT1 E17K
  IC50: 25.2 nM

## C=CC(=O)N1CCC(N[C@@H]2c3ccc(-n4c(-c5ccccc5)nc5ccc(-n6cccn6)nc54)cc3CC2F)CC1C(F)F (single isomer, unassigned) [Example 331, 1-((2*,4*)-2-(difluoromethyl)-4-(((1R,2*)-2-fluoro-5-(2-phenyl-5-(1H-pyrazol-1-yl)-3H-imidazo[4,5-b]pyridin-3-yl)-2,3-dihydro-1H-inden-1-yl)amino)piperidin-1-yl)prop-2-en-1-one]
AKT1 WT
  IC50: 807 nM
AKT2
  IC50: 128 nM
AKT1 E17K
  IC50: 18.1 nM

## C=CC(=O)N1CCC(N[C@H]2CCc3cc(-n4c(-c5cccnc5N)nc5ccc(-n6cccn6)nc54)ccc32)CC1CC#N (single isomer, unassigned) [Example 326, 2-((2*,4*)-1-acryloyl-4-(((S)-5-(2-(2-aminopyridin-3-yl)-5-(1H-pyrazol-1-yl)-3H-imidazo[4,5-b]pyridin-3-yl)-2,3-dihydro-1H-inden-1-yl)amino)piperidin-2-yl)acetonitrile]
AKT1 WT
  IC50: 98.8 nM
AKT2
  IC50: 29.3 nM
AKT1 E17K
  IC50: 7.25 nM
